Paper PMC5675618, “Identification and validation of FGFR2 peptide for detection of early Barrett's neoplasia” (Oncotarget, 2017)
No end group written: not given here. Cy5.5 = near-infrared fluorophore Cy5.5

What was measured:
Barrett's neoplasia = conditions: topical to mucosal surface, clinic, ref [19], [20], cited from earlier work
Experimental: An empiric peptide labeled with FITC was administered topically to the mucosal surface. Early neoplasia was detected with 94% specificity and 96% positive predictive value. Included in the analysis were 28 flat lesions (Paris 0-IIb) that were poorly visualized with white light. […] Peptides have high diversity, and can achieve high specificity with binding affinities on the ...

[1] = test system: FGFR2b, AKT, ERK phosphorylation in QhTERT cells; test: Western blot, effect of peptide binding on cell signaling, QhTERT cells expressing FGFR2b; assay type: cell-based, human; conditions: 20 min
Experimental: (§1) QhTERT cells that overexpress either FGFR2b or FGFR2c were seeded in 12-well flat-bottom plates with 500 μL of serum-free medium for 16 hours. FGF1 (#2232-FA-025, R&D systems) was reconstituted to a concentration of 100 μg/mL using PBS, diluted with 0.1% bovine serum albumin, and added to the cells at final concentrations of 100 ng/mL for 20 min in separate wells. Heparin (# H3149-10KU, Sigma) with final concentration of 100 units/mL was also added to increase stability. In addition, peptides at concentrations of 5 and 100 μM were incubated for 20 min in separate wells. The cells were washed with PBS and lysed in RIPA buffer containing protease inhibitors (#11836170001, Roche, Basel, Switzerland). Lysates were separated by gel electrophoresis, transferred to polyvinylidene difluoride membranes (#ISEQ00010, Millipore), and detected by immunoblotting using an enhanced chemiluminescence system (#RPN2106, GE Healthcare). Anti-FGFR2 antibody (#SC122, Santa Cruz Biotechnology), anti-phospho-FGFR (#3471, Cell Signaling Technology), anti-AKT (#4691P, Cell Signaling Technology), anti-ERK1/2 (#4695P, Cell Signaling Technology), anti-phospho-AKT (pS473; #4060P, Cell Signaling Technology), anti-phospho-ERK1/2 (#4370P, Cell Signaling Technology), and anti-tubulin (#32–2600, Invitrogen) were used as per manufacturer's instructions.

[2] = test system: FGFR2c, AKT, ERK phosphorylation in QhTERT cells; test: Western blot, effect of peptide binding on cell signaling, QhTERT cells expressing FGFR2c; assay type: cell-based, human; conditions: 20 min
Experimental: as §1

[3] = test system: QhTERT cells that express FGFR2c; test: Competition for binding of SRR^*-Cy5.5 with unlabeled peptide, confocal microscopy; assay type: cell-based, human; conditions: 30 min at 4°C, then 5 μM SRR^*-Cy5.5, 30 min at 4°C
Experimental: Specific peptide binding to QhTERT/FGFR2c was validated on competitive inhibition with addition of unlabeled peptide. ~10^3 cells were grown to ~70% confluence on cover glass in triplicate. Unlabeled peptides at concentrations of 0, 50, 100, 150, 250, and 500 μM were incubated with the cells for 30 min at 4°C. The cells were washed and incubated with 5 μM of the target peptide for another 30 min at 4°C. The cells were washed and fixed with 4% PFA for 5 min. The cells were washed with PBS and mounted with ProLong Gold reagent containing DAPI (Invitrogen).

[4] = Fluorescence spectra of Cy5.5-labeled peptides; assay type: physicochemical; conditions: 10 μM in PBS, excitation λex = 671 nm
From the text: We synthesized the 12 amino acid sequence SRRPASFRTARE (black) and attached the fluorophore Cy5.5 (red) via a GGGSK linker (blue) on the C-terminus, hereafter SRR^*-Cy5.5, Figure 1A. Cy5.5 was chosen for photostability and high quantum yield in the near-infrared (NIR) spectrum. We used a linker to prevent steric hindrance of the peptide by the dye. We then used a structural model (1EV2), [24] […] This domain is the same in either isoform FGFR2IIIb or FGFR2IIIc. We also used this model to develop a scrambled sequence SPSRERTFRARA for a control, Figure 1C. This peptide was also labeled with Cy5.5 via a GGGSK linker, hereafter SPS^*-Cy5.5. For SPS^*-Cy5.5, we calculated Et = −277.37. […] We purified SRR^*-Cy5.5 and […] to >97% on HPLC, and measured an experimental mass-to-charge (m/z) ratio on mass spectrometry of 2385.31 for both peptides that agreed with the expected value, Supplementary Figure 3.
Figure 1 Peptide specific for FGFR2 Chemical structure is shown for 12 amino acid (aa) peptide sequence (A) SRRPASFRTARE (SRR^*) found to be specific for FGFR2, and (B) scrambled peptide SPSRERTFRARA (SPS^*) used for control. A Cy5.5 fluorophore (red) is attached via a GGGSK linker (blue) to prevent steric hindrance.

[5] = test system: QhTERT cells that express FGFR2b; test: Confocal fluorescence microscopy, binding to QhTERT cells that express FGFR2b; assay type: cell-based, human; conditions: 1 μM peptide, 10 min at RT; confocal, 63X
From the text: (§2) All human esophageal specimens were obtained with written, informed patient consent per approval and guidelines of the University of Michigan Institutional Review Board (IRB). Human non-dysplastic Barrett's esophagus (BE) cells immortalized with hTert (QhTERT) were obtained from the American Type Culture Collection (ATCC) and cultured in keratinocyte-serum free medium containing bovine pituitary extract and human recombinant EGF (ThermoFisher #17005042). QhTERT cells with stable expression of FGFR2b or FGFR2c were provided (DGB). We cultured these cells with keratinocyte-serum free medium containing bovine pituitary extract and human recombinant EGF (ThermoFisher #17005042) and added 1 μg/mL of puromycin-dihydrochloride (Invitrogen #A11138-03). All cells were cultured at 37°C in 5% CO2, and were passaged using 0.25% EDTA containing trypsin (Mediatech Inc). A hemocytometer was used to determine cell number. Peptide synthesis reagents were obtained from either Anaspec or AAPPTEC with the highest grade available (>99% purity) and used without further purification. Solvents and other chemical reagents were obtained from Sigma-Aldrich, unless otherwise stated.
(§3) ~10^3 QhTERT/wt, QhTERT/FGFR2b, and QhTERT/FGFR2c cells were grown on cover glass to ~80% confluence. The cells were washed with PBS 1X and incubated with 1 μM of either peptide for 10 min at RT. The cells were then washed 3X in PBS, fixed with 4% paraformaldehyde (PFA) for 5 min, washed 1X with PBS, and then mounted on glass slides with ProLong Gold reagent containing DAPI (Invitrogen). Confocal fluorescence images were collected with Cy5.5 and DAPI filters (Leica Inverted SP5X 2-Photon FLIM confocal microscopes) using a 63X oil-immersion objective. Fluorescence intensities from 3 cells in each of 3 independent images were quantified using custom Matlab (Mathworks) software.

[6] = test system: QhTERT cells that express FGFR2c; test: Confocal fluorescence microscopy, binding to QhTERT cells that express FGFR2c; assay type: cell-based, human; conditions: 1 μM peptide, 10 min at RT; confocal, 63X
From the text: as §2, §3

QhTERT wild-type cells = test: Confocal fluorescence microscopy, binding to wild-type QhTERT cells; assay type: cell-based, human; conditions: 1 μM peptide, 10 min at RT, 63X
From the text: as §2, with “Peptide synthesis reagents were obtained from either Anaspec or AAPPTEC with the highest grade available (>99% purity) and used without further purification. Solvents and other chemical reagents were obtained from Sigma-Aldrich, unless otherwise stated.” left out
~10^3 QhTERT/wt, QhTERT/FGFR2b, and QhTERT/FGFR2c cells were grown on cover glass to ~80% confluence. […] Confocal fluorescence images were collected with Cy5.5 and DAPI filters (Leica Inverted SP5X 2-Photon FLIM confocal microscopes) using a 63X oil-immersion objective. Fluorescence intensities from 3 cells in each of 3 independent images were quantified using custom Matlab (Mathworks) software.

FGFR2c on QhTERT cells = target: T1, FGFR2c on QhTERT cells (UniProt P21802-1 22-821); test: flow cytometry on cells; apparent dissociation constant; Cy5.5-labeled peptide 0 to 200 nM in 25 nM increments in PBS, ~10^5 QhTERT/FGFR2c cells, 4°C for 1 hour, mean fluorescence intensity; conditions: one partner purified
T1 construct: fibroblast growth factor receptor 2, isoform IIIc (C-terminus of D3 encoded by exon 9), stably expressed in human QhTERT cells; also called FGFR2IIIc; isoform IIIc of FGFR2

[7] = FGF1 100 ng/mL, heparin 100 units/mL

T1 sequence (P21802 22-821): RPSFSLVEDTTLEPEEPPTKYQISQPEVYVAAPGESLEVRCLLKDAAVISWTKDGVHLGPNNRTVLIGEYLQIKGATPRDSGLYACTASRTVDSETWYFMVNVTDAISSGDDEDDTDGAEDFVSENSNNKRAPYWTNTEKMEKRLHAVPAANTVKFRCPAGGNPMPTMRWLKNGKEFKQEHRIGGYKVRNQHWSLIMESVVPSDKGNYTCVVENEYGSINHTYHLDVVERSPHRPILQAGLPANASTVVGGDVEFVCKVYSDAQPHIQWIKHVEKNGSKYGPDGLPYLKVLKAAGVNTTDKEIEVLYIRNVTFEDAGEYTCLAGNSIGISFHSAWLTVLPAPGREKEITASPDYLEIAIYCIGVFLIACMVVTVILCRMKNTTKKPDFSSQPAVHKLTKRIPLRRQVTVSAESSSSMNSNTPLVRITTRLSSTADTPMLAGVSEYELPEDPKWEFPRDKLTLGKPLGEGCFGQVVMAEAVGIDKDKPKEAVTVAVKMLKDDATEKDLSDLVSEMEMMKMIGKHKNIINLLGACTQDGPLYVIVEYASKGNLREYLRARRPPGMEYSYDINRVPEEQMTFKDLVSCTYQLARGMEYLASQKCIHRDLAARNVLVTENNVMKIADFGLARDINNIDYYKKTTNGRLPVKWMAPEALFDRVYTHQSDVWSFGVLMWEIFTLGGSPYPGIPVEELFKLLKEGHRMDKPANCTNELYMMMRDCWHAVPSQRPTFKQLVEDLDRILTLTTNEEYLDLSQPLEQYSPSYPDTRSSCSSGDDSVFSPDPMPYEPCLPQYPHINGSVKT

Molecule: ASYNYDA [empiric peptide labeled with FITC, 7 amino acid peptide ASYNYDA that was labeled with FITC]
- positive predictive value, early neoplasia detection (Barrett's neoplasia; included 28 flat lesions): 96%
- specificity, early neoplasia detection (Barrett's neoplasia; included 28 flat lesions): 94%
- time of binding (Barrett's neoplasia): ≤ 5 min

Molecule: FGF1: FGF1 (#2232-FA-025, R&D systems), positive control [reference compound]
- phosphorylation of FGFR2 (p-FGFR), AKT (p-AKT) and ERK (p-ERK), positive control [1, 7]: to some extent
- phosphorylation of FGFR2 (p-FGFR), AKT (p-AKT) and ERK (p-ERK), positive control [2, 7]: strong phosphorylation activity

Molecule: SPSRERTFRARA [SPS^*, unlabeled scrambled peptide … used for control]
- mean fluorescence intensity of SRR^*-Cy5.5 with unlabeled control peptide ([3]; unlabeled SPS^* at any concentration (0, 50, 100, 150, 250, 500 μM)): No significant difference

Molecule: SPSRERTFRARA [SPS^*-Cy5.5]
- peak emission λem [4]: 710 nm
- cell surface fluorescence signal / binding [5]: Minimal binding
- cell surface fluorescence signal / binding [6]: Minimal binding
- cell surface fluorescence signal / binding (QhTERT wild-type cells): Minimal binding

Molecule: SRRPASFRTARE [SRR^*, unlabeled 12 amino acid peptide … specific for FGFR2]
- mean fluorescence intensity of SRR^*-Cy5.5 with unlabeled target peptide ([3]; unlabeled SRR^* at 50 μM and greater vs 0 μM): significant reduction
- phosphorylation of FGFR2 (p-FGFR), AKT (p-AKT) and ERK (p-ERK) ([1]; peptide at 5 or 100 μM): no change in phosphorylation
- phosphorylation of FGFR2 (p-FGFR), AKT (p-AKT) and ERK (p-ERK) ([2]; peptide at 5 or 100 μM): no change in phosphorylation

B1: SRR*-Cy5.5 (peptide)
peptide: SRRPASFRTAREGGGSK(Cy5.5)-NH2
notes: 12-residue peptide selected by phage display (Ph.D.-12 library) against FGFR2-ECD; linker on the C-terminus that carries the Cy5.5; Assembled on rink amide MBHA resin, so the C-terminus is probably an amide; also called FGFR2 peptide; source: synthetic peptide (Fmoc solid-phase synthesis, prep-HPLC, >97%)
- Kd (FGFR2c on QhTERT cells): 68 nM
